Test results: patent US8846719B2, “Isoxazolo-pyridine derivatives” (Roche Palo Alto LLC, priority 2007, dated 2014)

Target: human GABA A receptor α5β3γ2 (Homo sapiens (Human), UniProt P18507+P31644)
Assay: [3H]flumazenil competition binding assay, human GABA A α5β3γ2 receptors expressed in HEK293 cells
Conditions: human receptor; displacement of [3H]flumazenil (0.5 nM); means of two determinations; read-out: hKi GABAAa5
How it was run: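 Ki values, each the mean of two runs, derive from displacement of [3H]flumazenil from human α5β3γ2 GABA A receptors transiently expressed in HEK293 membranes. Binding ran 1 h at 4° C in Krebs-tris, pH 7.5, before filter harvest and scintillation counting.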

Row | SMILES | Ki [nM]
1 | CC(C)NC(=O)c1ccc(OCc2c(-c3ccc(F)cc3)noc2C(F)(F)F)nc1 [Example 142, 6-[3-(4-Fluoro-phenyl)-5-trifluoromethyl-isoxazol-4-ylmethoxy]-N-isopropyl-nicotinamide] | 33.5
2 | O=C(NC1CC1)c1ccc(OCc2c(-c3ccc(F)cc3)noc2C(F)(F)F)nc1 [Example 143, N-Cyclopropyl-6-[3-(4-fluoro-phenyl)-5-trifluoromethyl-isoxazol-4-ylmethoxy]-nicotinamide] | 38.4
3 | O=C(NC1CCOCC1)c1ccc(OCc2c(-c3ccc(F)cc3)noc2C(F)(F)F)nc1 [Example 144, 6-[3-(4-Fluoro-phenyl)-5-trifluoromethyl-isoxazol-4-ylmethoxy]-N-(tetrahydro-pyran-4-yl)-nicotinamide] | 12.5
4 | O=C(c1ccc(OCc2c(-c3ccc(F)cc3)noc2C(F)(F)F)nc1)N1CCS(=O)(=O)CC1 [Example 145, (1,1-Dioxo-1λ6-thiomorpholin-4-yl)-{6-[3-(4-fluoro-phenyl)-5-trifluoromethyl-isoxazol-4-ylmethoxy]-pyridin-3-yl}-methanone] | 58.9
5 | Cc1onc(-c2ccncc2)c1COc1ccc(C(=O)NCC(F)(F)F)cn1 [Example 146, 6-(5-Methyl-3-pyridin-4-yl-isoxazol-4-ylmethoxy)-N-(2,2,2-trifluoro-ethyl)-nicotinamide] | 5.9
6 | Cc1onc(-c2ccncc2)c1COc1ccc(C(=O)NCC2CC2)cn1 [Example 147, N-Cyclopropylmethyl-6-(5-methyl-3-pyridin-4-yl-isoxazol-4-ylmethoxy)-nicotinamide] | 4.1
7 | Cc1onc(-c2ccncc2)c1COc1ccc(C(=O)NC2CC2)cn1 [Example 148, N-Cyclopropyl-6-(5-methyl-3-pyridin-4-yl-isoxazol-4-ylmethoxy)-nicotinamide] | 7.1
8 | Cc1onc(-c2ccncc2)c1COc1ccc(C(=O)NC(C)C)cn1 [Example 149, N-Isopropyl-6-(5-methyl-3-pyridin-4-yl-isoxazol-4-ylmethoxy)-nicotinamide] | 4.5
9 | Cc1onc(-c2ccncc2)c1COc1ccc(C(=O)NC2CCOCC2)cn1 [Example 150, 6-(5-Methyl-3-pyridin-4-yl-isoxazol-4-ylmethoxy)-N-(tetrahydro-pyran-4-yl)-nicotinamide] | 5.6
10 | Cc1onc(-c2ccncc2)c1COc1ccc(C(=O)N2CCOCC2)cn1 [Example 151, [6-(5-Methyl-3-pyridin-4-yl-isoxazol-4-ylmethoxy)-pyridin-3-yl]-morpholin-4-yl-methanone] | 84.5
11 | Cc1onc(-c2ccncc2)c1COc1ccc(C(=O)N2CCSCC2)cn1 [Example 152, [6-(5-Methyl-3-pyridin-4-yl-isoxazol-4-ylmethoxy)-pyridin-3-yl]-thiomorpholin-4-yl-methanone] | 39.7
12 | Cc1onc(-c2ccncc2)c1COc1ccc(C(=O)N2CCS(=O)(=O)CC2)cn1 [Example 153, (1,1-Dioxo-1λ6-thiomorpholin-4-yl)-[6-(5-methyl-3-pyridin-4-yl-isoxazol-4-ylmethoxy)-pyridin-3-yl]-methanone] | 65.7
13 | COC(=O)c1ccc(OCc2c(-c3cccnc3)noc2C)nc1 [Example 154, 6-(5-Methyl-3-pyridin-3-yl-isoxazol-4-ylmethoxy)-nicotinic acid methyl ester] | 53.2
14 | Cc1onc(-c2cccnc2)c1COc1ccc(C(=O)NCC(F)(F)F)cn1 [Example 155, 6-(5-Methyl-3-pyridin-3-yl-isoxazol-4-ylmethoxy)-N-(2,2,2-trifluoro-ethyl)-nicotinamide] | 24
15 | Cc1onc(-c2cccnc2)c1COc1ccc(C(=O)NCC2CC2)cn1 [Example 156, N-Cyclopropylmethyl-6-(5-methyl-3-pyridin-3-yl-isoxazol-4-ylmethoxy)-nicotinamide] | 29.8
16 | Cc1onc(-c2cccnc2)c1COc1ccc(C(=O)NC2CC2)cn1 [Example 157, N-Cyclopropyl-6-(5-methyl-3-pyridin-3-yl-isoxazol-4-ylmethoxy)-nicotinamide] | 26.3
17 | Cc1onc(-c2cccnc2)c1COc1ccc(C(=O)NC(C)C)cn1 [Example 158, N-Isopropyl-6-(5-methyl-3-pyridin-3-yl-isoxazol-4-ylmethoxy)-nicotinamide] | 31.7
18 | Cc1onc(-c2cccnc2)c1COc1ccc(C(=O)NC2CCOCC2)cn1 [Example 159, 6-(5-Methyl-3-pyridin-3-yl-isoxazol-4-ylmethoxy)-N-(tetrahydro-pyran-4-yl)-nicotinamide] | 27.9
19 | Cc1onc(-c2ccccc2)c1CNc1ccccn1 [Example 160, (5-Methyl-3-phenyl-isoxazol-4-ylmethyl)-pyridin-2-yl-amine] | 87.3
20 | COC(=O)c1ccc(NCc2c(-c3ccccc3)noc2C)nc1 [Example 161, 6-[(5-Methyl-3-phenyl-isoxazol-4-ylmethyl)-amino]-nicotinic acid methyl ester] | 27.4
21 | Cc1onc(-c2ccccc2)c1CNc1ccc(C(=O)NCCO)cn1 [Example 162, N-(2-Hydroxy-ethyl)-6-[(5-methyl-3-phenyl-isoxazol-4-ylmethyl)-amino]-nicotinamide] | 10.4

Row | SMILES | Ki [nM]
22 | Cc1onc(-c2ccccc2)c1CNc1ccc(C(=O)NCCN2CCCC2=O)cn1 [Example 163, 6-[(5-Methyl-3-phenyl-isoxazol-4-ylmethyl)-amino]-N-[2-(2-oxo-pyrrolidin-1-yl)-ethyl]-nicotinamide] | 37.3
23 | Cc1onc(-c2ccccc2)c1CNc1ccc(C(=O)NC(C)C)cn1 [Example 164, N-Isopropyl-6-[(5-methyl-3-phenyl-isoxazol-4-ylmethyl)-amino]-nicotinamide] | 5.9
24 | Cc1onc(-c2ccccc2)c1CNc1ccc(C(=O)NC2CC2)cn1 [Example 165, N-Cyclopropyl-6-[(5-methyl-3-phenyl-isoxazol-4-ylmethyl)-amino]-nicotinamide] | 10.6
25 | Cc1onc(-c2ccccc2)c1CNc1ccc(C(=O)NC2CCOCC2)cn1 [Example 166, 6-[(5-Methyl-3-phenyl-isoxazol-4-ylmethyl)-amino]-N-(tetrahydro-pyran-4-yl)-nicotinamide] | 8.8
26 | COC(=O)c1ccc(NCc2c(-c3cccc(F)c3)noc2C)nc1 [Example 167, 6-{[3-(3-Fluoro-phenyl)-5-methyl-isoxazol-4-ylmethyl]-amino}-nicotinic acid methyl ester] | 69.3
27 | Cc1onc(-c2cccc(F)c2)c1CNc1ccc(C(=O)NCC(F)(F)F)cn1 [Example 168, 6-{[3-(3-Fluoro-phenyl)-5-methyl-isoxazol-4-ylmethyl]-amino}-N-(2,2,2-trifluoro-ethyl)-nicotinamide] | 17.8
28 | Cc1onc(-c2cccc(F)c2)c1CNc1ccc(C(=O)NC(C)C)cn1 [Example 169, 6-{[3-(3-Fluoro-phenyl)-5-methyl-isoxazol-4-ylmethyl]-amino}-N-isopropyl-nicotinamide] | 15.4
29 | Cc1onc(-c2cccc(F)c2)c1CNc1ccc(C(=O)NC2CC2)cn1 [Example 170, N-Cyclopropyl-6-{[3-(3-fluoro-phenyl)-5-methyl-isoxazol-4-ylmethyl]-amino}-nicotinamide] | 19.4
30 | Cc1onc(-c2cccc(F)c2)c1CNc1ccc(C(=O)NC2CCOCC2)cn1 [Example 171, 6-{[3-(3-Fluoro-phenyl)-5-methyl-isoxazol-4-ylmethyl]-amino}-N-(tetrahydro-pyran-4-yl)-nicotinamide] | 14.9
31 | COC(=O)c1ccc(NCc2c(-c3ccc(F)cc3)noc2C)nc1 [Example 172, 6-{[3-(4-Fluoro-phenyl)-5-methyl-isoxazol-4-ylmethyl]-amino}-nicotinic acid methyl ester] | 25.9
32 | Cc1onc(-c2ccc(F)cc2)c1CNc1ccc(C(=O)NCC(F)(F)F)cn1 [Example 173, 6-{[3-(4-Fluoro-phenyl)-5-methyl-isoxazol-4-ylmethyl]-amino}-N-(2,2,2-trifluoro-ethyl)-nicotinamide] | 5.9
33 | Cc1onc(-c2ccc(F)cc2)c1CNc1ccc(C(=O)NCC2CC2)cn1 [Example 174, N-Cyclopropylmethyl-6-{[3-(4-fluoro-phenyl)-5-methyl-isoxazol-4-ylmethyl]-amino}-nicotinamide] | 7.6
34 | Cc1onc(-c2ccc(F)cc2)c1CNc1ccc(C(=O)NC(C)C)cn1 [Example 175, 6-{[3-(4-Fluoro-phenyl)-5-methyl-isoxazol-4-ylmethyl]-amino}-N-isopropyl-nicotinamide] | 3.7
35 | Cc1onc(-c2ccc(F)cc2)c1CNc1ccc(C(=O)NC2CC2)cn1 [Example 176, N-Cyclopropyl-6-{[3-(4-fluoro-phenyl)-5-methyl-isoxazol-4-ylmethyl]-amino}-nicotinamide] | 7.4
36 | Cc1onc(-c2ccc(F)cc2)c1CNc1ccc(C(=O)NC2CCOCC2)cn1 [Example 177, 6-{[3-(4-Fluoro-phenyl)-5-methyl-isoxazol-4-ylmethyl]-amino}-N-(tetrahydro-pyran-4-yl)-nicotinamide] | 6.5
37 | Cc1onc(-c2ccc(F)cc2)c1CNc1ccc(C(=O)N2CCS(=O)(=O)CC2)cn1 [Example 178, (1,1-Dioxo-1,6-thiomorpholin-4-yl)-(6-{[3-(4-fluoro-phenyl)-5-methyl-isoxazol-4-ylmethyl]-amino}-pyridin-3-yl)-methanone] | 29.2
38 | CC(=O)Nc1ccc(OCc2c(-c3ccccc3)noc2C)nc1 [Example 179, N-[6-(5-Methyl-3-phenyl-isoxazol-4-ylmethoxy)-pyridin-3-yl]-acetamide] | 9.4
39 | COC(=O)C(=O)Nc1ccc(OCc2c(-c3ccccc3)noc2C)nc1 [Example 180, N-[6-(5-Methyl-3-phenyl-isoxazol-4-ylmethoxy)-pyridin-3-yl]-oxalamic acid methyl ester] | 7.2
40 | Cc1onc(-c2ccccc2)c1COc1ccc(NC(=O)C(C)C)cn1 [Example 181, N-[6-(5-Methyl-3-phenyl-isoxazol-4-ylmethoxy)-pyridin-3-yl]-isobutyramide] | 19.2
41 | Cc1onc(-c2ccccc2)c1COc1ccc(NC(=O)C2CC2)cn1 [Example 182, Cyclopropanecarboxylic acid [6-(5-methyl-3-phenyl-isoxazol-4-ylmethoxy)-pyridin-3-yl]-amide] | 10.1
